Measurements taken from ChEMBL document CHEMBL1155939, “Baicalin, a prodrug able to reach the CNS, is a prolyl oligopeptidase inhibitor” (Bioorg Med Chem, 2008).

target: T1, Prolyl endopeptidase (Homo sapiens, UniProt P48147); assay: Inhibition of human brain prolyl oligopeptidase expressed in Escherichia coli
T1 sequence (P48147 whole entry): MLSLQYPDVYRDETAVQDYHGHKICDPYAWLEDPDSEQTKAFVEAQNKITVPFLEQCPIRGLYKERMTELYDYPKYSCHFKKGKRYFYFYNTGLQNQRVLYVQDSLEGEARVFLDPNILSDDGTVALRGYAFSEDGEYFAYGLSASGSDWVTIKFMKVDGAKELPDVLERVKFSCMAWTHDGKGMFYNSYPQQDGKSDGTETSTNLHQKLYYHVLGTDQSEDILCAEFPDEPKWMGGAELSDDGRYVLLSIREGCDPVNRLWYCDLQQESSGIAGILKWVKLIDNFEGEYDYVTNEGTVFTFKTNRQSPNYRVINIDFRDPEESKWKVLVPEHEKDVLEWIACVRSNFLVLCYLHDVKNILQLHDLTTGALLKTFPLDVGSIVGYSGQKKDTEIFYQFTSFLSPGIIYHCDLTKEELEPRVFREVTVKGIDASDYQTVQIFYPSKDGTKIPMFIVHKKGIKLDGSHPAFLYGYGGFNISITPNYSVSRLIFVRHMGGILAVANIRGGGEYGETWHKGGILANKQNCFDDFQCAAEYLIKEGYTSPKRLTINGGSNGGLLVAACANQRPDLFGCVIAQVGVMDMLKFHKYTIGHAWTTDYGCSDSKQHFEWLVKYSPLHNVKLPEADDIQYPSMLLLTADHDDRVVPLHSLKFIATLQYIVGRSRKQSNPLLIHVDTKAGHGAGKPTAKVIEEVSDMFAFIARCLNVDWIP

| Compound | IC50 [µM] |
| --- | --- |
| C[C@@H]1O[C@@H](OC[C@H]2O[C@@H](Oc3c(-c4ccc(O)c(O)c4)oc4cc(O)cc(O)c4c3=O)[C@H](O)[C@@H](O)[C@@H]2O)[C@H](O)[C@H](O)[C@H]1O [RUTIN] | > 200 |
| O=c1c(O)c(-c2ccc(O)c(O)c2)oc2cc(O)cc(O)c12 [QUERCETIN] | 13 |
| O=c1c(O)c(-c2ccc(O)cc2)oc2cc(O)cc(O)c12 [KAEMPFEROL] | > 200 |
| O=c1c(O)c(-c2ccccc2)oc2cc(O)ccc12 [3,7-DIHYDROXYFLAVONE] | > 200 |
